Data from ChEMBL document CHEMBL1201862, “PubChem BioAssay data set” (2004).
The source made the active and inactive calls.

How the values were obtained:
CAAX prenyl protease 2 [1] = target: CAAX prenyl protease 2 (Saccharomyces cerevisiae S288c, UniProt Q03530); format: biochemical
CAAX prenyl protease 1 = CAAX prenyl protease 1 (Saccharomyces cerevisiae S288c, UniProt P47154); assay: Ste24 protease inhibitors, dose response, biochemical, S. cerevisiae, plate reader, cherry-pick (AID 488815)
CAAX prenyl protease 2 [2] = target: T1, CAAX prenyl protease 2 (Homo sapiens, UniProt Q9Y256); assay: human Rce1 protease inhibitors, dose response, biochemical, yeast membranes, quenched-peptide fluorescence, cherry-pick (AID 588849)
T1 sequence (Q9Y256 whole entry): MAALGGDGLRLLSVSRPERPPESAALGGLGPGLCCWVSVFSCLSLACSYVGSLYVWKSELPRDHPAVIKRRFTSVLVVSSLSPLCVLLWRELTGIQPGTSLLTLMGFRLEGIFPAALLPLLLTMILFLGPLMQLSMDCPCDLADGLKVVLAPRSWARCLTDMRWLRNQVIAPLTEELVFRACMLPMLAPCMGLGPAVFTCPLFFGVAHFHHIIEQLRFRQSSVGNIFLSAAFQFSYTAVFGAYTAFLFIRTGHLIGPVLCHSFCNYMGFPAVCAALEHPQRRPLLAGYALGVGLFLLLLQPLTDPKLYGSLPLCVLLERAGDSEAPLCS

[3] = inhibitors of Vif binding to APOBEC3G peptide, primary screen, biochemical, TR-FRET, GST-Vif 1-94, biotin-A3G peptide, dose response retest (AID 1117319); format: functional;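 also: TR-FRET signal of purified GST-Vif binding a biotinylated A3G peptide; inhibitors lower the FRET signal by blocking Vif and A3G binding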
Trypsin = Trypsin (Sus scrofa, UniProt P00761); assay: porcine trypsin inhibitors, dose response, selectivity assay for Rce1 protease inhibitor project, biochemical, quenched peptide fluorescence, cherry-pick (AID 488789)
[4] = target: 26S proteasome non-ATPase regulatory subunit 14 (Homo sapiens, UniProt O00487); assay: inhibition of proteasome subunit RPN11 – biochemical, fluorescence polarization, uHTS hits, confirmation (AID 602368); format: functional
[5] = target: 72 kDa type IV collagenase (Homo sapiens, UniProt P08253); assay: Dose Response validation of uHTS RPN11 inhibitor hits using a MMP-2 Fluorescence assay.; format: functional
Large T antigen = Large T antigen (Simian virus 40, UniProt P03070); format: functional, Betapolyomavirus macacae;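 also: Confirmatory-stage PubChem screen for compounds that inhibit SV40 T antigen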
Sequence of Large T antigen (P03070 whole entry): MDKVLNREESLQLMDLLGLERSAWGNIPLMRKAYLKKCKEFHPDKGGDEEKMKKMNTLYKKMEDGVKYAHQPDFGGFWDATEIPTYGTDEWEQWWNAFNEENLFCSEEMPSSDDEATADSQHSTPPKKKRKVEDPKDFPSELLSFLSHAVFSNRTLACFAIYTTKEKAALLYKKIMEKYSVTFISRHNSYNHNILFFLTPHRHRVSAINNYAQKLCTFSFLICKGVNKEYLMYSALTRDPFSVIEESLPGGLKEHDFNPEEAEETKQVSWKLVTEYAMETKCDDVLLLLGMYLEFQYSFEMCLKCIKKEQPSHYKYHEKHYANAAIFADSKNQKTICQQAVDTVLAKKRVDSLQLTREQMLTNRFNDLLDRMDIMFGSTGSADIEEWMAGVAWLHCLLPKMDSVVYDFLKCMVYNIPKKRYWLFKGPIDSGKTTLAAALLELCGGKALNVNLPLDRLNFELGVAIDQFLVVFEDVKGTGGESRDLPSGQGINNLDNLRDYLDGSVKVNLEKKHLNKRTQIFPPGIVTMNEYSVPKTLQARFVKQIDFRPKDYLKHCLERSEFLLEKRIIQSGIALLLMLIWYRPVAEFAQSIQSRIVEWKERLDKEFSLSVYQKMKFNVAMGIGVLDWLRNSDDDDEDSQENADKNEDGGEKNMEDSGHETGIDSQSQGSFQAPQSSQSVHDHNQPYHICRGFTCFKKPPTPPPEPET

[6] = inhibition of K1F phage lysis, E. coli UTI89, bacterial capsule biogenesis inhibitors, alamar blue (AID 488966); format: functional
Prothrombin = Prothrombin (Bos taurus, UniProt P00735); assay: thrombin inhibition, dose response, biochemical, fluorescence polarization, uHTS hits (AID 602369); format: functional
Protein Tat = Protein Tat (Human immunodeficiency virus type 1 group M subtype B (isolate HXB2)(HIV-1), UniProt P04608); format: functional;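 also: tat binding to TAR RNA read out by fluorescence polarization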
Sequence of Protein Tat (P04608 whole entry): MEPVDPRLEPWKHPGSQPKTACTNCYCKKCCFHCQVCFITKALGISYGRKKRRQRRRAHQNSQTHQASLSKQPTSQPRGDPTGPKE

Estrogen receptor beta [7] = target: T2, Estrogen receptor beta (Homo sapiens, UniProt Q92731); assay: ERβ–SRC-3 coactivator interaction inhibitors, confirmation, orthogonal assay, biochemical, ELISA, streptavidin-HRP readout (AID 1060)
T2 sequence (Q92731 whole entry): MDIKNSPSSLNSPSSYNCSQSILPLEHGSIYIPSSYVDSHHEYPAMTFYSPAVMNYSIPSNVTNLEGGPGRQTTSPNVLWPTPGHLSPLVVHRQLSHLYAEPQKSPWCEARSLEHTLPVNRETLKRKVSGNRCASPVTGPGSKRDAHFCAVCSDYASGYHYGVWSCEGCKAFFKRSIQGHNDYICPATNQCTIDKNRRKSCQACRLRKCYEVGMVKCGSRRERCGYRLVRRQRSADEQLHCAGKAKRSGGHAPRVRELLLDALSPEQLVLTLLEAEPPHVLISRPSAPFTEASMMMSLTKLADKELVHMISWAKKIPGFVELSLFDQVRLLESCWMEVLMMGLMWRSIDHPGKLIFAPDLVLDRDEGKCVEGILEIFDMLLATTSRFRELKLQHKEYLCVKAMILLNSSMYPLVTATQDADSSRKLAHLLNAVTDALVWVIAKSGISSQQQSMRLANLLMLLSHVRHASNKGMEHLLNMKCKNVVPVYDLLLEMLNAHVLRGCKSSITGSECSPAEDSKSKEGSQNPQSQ

Estrogen receptor beta [8] = target: T2, Estrogen receptor beta
[9] = inhibitors of Bluetongue virus cytopathic effect, confirmation, arbovirus, BSR cells (AID 1250); format: functional;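 also: protection from viral cytopathic effect measured as cell viability by ATP luminescence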
[10] = target: Induced myeloid leukemia cell differentiation protein Mcl-1 (Homo sapiens, UniProt Q07820); format: functional
Protein skinhead-1 = target: T3, Protein skinhead-1 (Caenorhabditis elegans, UniProt P34707); format: functional
T3 sequence (P34707 whole entry): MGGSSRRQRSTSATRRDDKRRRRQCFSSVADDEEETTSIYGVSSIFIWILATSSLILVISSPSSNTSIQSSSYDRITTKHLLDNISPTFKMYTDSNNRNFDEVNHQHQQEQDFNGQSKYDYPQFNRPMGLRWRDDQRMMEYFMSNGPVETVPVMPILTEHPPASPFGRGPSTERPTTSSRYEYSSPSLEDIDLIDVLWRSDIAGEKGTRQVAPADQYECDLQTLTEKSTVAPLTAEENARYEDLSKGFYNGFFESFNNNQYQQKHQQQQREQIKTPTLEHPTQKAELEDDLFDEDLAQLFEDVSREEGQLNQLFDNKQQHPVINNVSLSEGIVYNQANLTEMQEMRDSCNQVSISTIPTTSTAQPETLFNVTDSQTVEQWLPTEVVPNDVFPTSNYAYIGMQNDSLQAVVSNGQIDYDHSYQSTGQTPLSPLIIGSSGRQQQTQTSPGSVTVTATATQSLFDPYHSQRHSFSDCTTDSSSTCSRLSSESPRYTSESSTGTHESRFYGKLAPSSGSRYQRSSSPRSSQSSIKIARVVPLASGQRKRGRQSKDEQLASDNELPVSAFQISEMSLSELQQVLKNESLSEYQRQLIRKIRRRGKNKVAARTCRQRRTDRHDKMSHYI

Caspase-3 = target: T4, Caspase-3 (Homo sapiens, UniProt P42574); assay: procaspase-3 activators, dose response, biochemical, absorbance (AID 489014)
T4 sequence (P42574 whole entry): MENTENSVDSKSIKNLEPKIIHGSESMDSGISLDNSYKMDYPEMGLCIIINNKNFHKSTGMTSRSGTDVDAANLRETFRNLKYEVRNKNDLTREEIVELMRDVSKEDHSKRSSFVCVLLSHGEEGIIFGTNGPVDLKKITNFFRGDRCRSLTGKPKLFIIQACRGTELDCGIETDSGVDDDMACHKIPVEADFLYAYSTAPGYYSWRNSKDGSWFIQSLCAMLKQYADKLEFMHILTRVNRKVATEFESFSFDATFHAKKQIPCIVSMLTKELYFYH

[11] = target: T5, Voltage-gated N-type calcium channel alpha-1B subunit/Amyloid beta A4 precursor protein-binding family A member 1 (Homo sapiens, UniProt Q00975+Q02410); format: protein assay
T5 sequence (Q00975 whole entry): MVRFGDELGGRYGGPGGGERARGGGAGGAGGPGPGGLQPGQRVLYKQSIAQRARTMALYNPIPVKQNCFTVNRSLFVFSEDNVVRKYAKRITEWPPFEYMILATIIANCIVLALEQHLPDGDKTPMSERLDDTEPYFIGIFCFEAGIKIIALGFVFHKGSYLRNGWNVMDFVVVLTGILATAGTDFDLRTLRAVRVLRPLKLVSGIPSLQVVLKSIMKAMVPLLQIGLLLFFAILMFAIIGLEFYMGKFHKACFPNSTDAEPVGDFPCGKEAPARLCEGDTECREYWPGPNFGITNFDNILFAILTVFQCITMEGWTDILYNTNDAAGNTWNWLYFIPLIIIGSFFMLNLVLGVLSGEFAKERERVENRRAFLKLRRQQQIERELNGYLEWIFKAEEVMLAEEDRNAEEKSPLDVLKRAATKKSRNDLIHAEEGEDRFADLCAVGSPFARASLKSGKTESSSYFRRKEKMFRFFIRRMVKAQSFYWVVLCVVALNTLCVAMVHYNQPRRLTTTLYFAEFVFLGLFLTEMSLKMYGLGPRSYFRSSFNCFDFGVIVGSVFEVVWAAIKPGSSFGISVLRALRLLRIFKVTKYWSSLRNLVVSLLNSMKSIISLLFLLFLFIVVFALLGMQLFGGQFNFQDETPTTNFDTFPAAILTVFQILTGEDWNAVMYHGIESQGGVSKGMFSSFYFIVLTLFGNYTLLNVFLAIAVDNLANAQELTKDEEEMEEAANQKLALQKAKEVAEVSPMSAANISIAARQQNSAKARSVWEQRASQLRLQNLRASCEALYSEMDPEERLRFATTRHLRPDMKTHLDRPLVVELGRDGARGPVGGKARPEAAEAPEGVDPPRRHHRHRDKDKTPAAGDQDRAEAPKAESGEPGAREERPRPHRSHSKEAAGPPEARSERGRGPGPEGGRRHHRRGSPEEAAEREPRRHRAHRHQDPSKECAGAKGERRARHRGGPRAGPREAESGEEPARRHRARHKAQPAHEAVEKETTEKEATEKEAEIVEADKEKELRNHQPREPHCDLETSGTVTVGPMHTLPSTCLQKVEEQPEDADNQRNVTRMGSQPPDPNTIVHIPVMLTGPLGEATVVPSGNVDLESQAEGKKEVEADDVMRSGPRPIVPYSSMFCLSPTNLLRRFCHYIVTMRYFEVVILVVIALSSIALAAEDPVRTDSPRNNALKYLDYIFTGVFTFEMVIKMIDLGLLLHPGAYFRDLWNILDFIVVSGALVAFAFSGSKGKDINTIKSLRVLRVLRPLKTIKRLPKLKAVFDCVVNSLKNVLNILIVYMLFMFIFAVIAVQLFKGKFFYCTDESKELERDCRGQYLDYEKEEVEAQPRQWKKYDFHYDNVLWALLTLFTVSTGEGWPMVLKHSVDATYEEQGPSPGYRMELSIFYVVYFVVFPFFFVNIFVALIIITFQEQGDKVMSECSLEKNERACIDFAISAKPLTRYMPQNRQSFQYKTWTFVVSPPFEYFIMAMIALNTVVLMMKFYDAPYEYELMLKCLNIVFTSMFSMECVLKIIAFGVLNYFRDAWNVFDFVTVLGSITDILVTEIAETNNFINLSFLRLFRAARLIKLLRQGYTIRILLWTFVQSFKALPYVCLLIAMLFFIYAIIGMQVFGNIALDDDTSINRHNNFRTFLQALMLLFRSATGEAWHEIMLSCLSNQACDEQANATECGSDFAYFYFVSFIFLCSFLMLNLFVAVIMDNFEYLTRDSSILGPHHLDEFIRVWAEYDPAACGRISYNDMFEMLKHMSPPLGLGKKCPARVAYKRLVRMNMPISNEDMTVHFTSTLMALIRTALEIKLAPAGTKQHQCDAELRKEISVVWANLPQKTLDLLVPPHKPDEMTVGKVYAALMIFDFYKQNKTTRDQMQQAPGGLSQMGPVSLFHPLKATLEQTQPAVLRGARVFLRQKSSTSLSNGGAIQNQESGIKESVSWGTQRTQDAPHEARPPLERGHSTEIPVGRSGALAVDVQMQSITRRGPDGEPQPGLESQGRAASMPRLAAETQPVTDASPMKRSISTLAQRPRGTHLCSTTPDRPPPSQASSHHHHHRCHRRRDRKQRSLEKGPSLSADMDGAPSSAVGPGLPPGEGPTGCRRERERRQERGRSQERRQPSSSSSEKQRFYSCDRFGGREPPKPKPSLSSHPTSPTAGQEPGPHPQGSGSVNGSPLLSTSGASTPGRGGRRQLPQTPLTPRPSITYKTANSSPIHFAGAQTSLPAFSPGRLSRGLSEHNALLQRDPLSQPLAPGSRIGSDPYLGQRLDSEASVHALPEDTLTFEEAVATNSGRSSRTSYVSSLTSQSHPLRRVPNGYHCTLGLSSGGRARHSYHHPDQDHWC
T5 sequence (Q02410 whole entry): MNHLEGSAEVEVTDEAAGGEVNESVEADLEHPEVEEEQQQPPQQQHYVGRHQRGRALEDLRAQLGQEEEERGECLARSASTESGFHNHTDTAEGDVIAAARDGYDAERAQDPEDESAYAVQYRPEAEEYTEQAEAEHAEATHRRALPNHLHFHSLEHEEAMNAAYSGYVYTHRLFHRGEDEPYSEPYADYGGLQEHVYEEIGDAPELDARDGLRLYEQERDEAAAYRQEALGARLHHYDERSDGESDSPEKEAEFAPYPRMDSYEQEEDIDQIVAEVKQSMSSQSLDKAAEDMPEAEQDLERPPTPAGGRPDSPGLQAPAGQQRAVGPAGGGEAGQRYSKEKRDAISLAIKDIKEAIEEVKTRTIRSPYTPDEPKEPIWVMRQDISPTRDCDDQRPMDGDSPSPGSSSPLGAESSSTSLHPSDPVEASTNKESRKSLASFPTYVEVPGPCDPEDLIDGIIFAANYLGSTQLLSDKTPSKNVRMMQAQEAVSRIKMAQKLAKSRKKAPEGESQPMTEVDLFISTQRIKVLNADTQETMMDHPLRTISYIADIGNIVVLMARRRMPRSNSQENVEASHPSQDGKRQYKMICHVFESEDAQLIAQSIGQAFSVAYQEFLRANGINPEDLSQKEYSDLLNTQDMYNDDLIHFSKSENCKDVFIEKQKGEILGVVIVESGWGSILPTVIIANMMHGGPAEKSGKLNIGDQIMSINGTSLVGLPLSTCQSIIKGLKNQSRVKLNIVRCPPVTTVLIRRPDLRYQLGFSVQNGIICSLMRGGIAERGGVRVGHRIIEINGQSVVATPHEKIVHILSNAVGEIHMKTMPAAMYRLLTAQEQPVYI

Caspase-7 = Caspase-7 (Homo sapiens, UniProt P55210); assay: procaspase-7 activators, dose response, counter-screen for procaspase-3 activator project, biochemical, absorbance (AID 489013)
[12] = target: T5, Voltage-gated N-type calcium channel alpha-1B subunit/Amyloid beta A4 precursor protein-binding family A member 1; format: protein assay; remark: listed apart in the source
Coagulation factor XII = target: T6, Coagulation factor XII (Homo sapiens, UniProt P00748); assay: FXIIa inhibitor potency, concentration-response, biochemical (AID 716); format: functional
T6 sequence (P00748 whole entry): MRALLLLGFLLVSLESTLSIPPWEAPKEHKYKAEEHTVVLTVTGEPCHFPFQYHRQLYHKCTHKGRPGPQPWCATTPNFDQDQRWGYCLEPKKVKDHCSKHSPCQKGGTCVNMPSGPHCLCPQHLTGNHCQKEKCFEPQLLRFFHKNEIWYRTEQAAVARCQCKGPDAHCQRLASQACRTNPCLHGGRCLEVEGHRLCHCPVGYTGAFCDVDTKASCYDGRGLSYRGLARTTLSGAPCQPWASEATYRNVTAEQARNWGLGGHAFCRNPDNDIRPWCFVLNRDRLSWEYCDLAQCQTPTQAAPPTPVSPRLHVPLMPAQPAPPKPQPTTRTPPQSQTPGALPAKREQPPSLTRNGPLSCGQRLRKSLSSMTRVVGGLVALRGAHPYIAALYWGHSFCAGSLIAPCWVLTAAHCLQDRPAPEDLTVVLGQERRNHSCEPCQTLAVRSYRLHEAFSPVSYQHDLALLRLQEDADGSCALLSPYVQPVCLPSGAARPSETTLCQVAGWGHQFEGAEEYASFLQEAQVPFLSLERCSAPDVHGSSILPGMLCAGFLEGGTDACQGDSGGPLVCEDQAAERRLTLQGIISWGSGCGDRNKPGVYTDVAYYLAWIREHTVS

Sequence of CAAX prenyl protease 1 (P47154 whole entry): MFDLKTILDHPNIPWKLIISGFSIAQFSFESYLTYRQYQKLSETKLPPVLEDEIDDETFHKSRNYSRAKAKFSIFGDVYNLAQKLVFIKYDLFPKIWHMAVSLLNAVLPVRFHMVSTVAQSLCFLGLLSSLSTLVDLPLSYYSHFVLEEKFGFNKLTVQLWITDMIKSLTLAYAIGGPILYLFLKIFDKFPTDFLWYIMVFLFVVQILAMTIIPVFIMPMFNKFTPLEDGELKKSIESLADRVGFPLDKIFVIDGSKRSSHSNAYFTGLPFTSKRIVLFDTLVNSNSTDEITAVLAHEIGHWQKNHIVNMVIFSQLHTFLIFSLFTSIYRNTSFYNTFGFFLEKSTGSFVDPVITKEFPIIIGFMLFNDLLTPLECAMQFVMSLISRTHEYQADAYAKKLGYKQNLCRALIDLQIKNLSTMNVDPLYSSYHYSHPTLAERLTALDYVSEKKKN

In the case of `CC(=O)Nc1ccc(S(=O)(=O)Nc2cccc(-c3nc4ccccc4o3)c2)cc1`, the AC50 (CAAX prenyl protease 2 [1]) is reported as 14.4 µM (active), the AC50 (CAAX prenyl protease 1) is reported as 7.83 µM (active) and the AC50 (CAAX prenyl protease 2 [2]) is reported as 7.75 µM (active). The IC50 [3] was > 100 µM (active) and the AC50 (Trypsin) was 5.89 µM (active).
With `CCCC1=NN2C(=N)/C(=C\c3ccc(SCc4ccco4)o3)C(=O)N=C2S1` the IC50 [4] was 13.7 µM (active), the IC50 [5] was 6.34 µM (active) and the IC50 (Large T antigen) was 29.3 µM (active). The IC50 [6] was > 75 µM (active), the IC50 (Prothrombin) was 22.8 µM (active) and the IC50 (Protein Tat) was 1.98 µM (inconclusive). The IC50 (Estrogen receptor beta [7]) was > 50 µM (not active), the IC50 (Estrogen receptor beta [8]) was 2.65 µM (active) and the IC50 [9] was 59.4 µM (active). The IC50 [10] was 3.18 µM (active) and the IC50 (Protein skinhead-1) was > 100 µM (inactive).
With `Cc1cc2nn(-c3cccc4ccccc34)nc2cc1N` the EC50 (Caspase-3) was > 85.2 µM (inactive), the IC50 [11] was 8.23 µM (active) and the EC50 (Caspase-7) was > 85.2 µM (inactive). For the same compound, the IC50 [12] was 46.7 µM (active).
In the case of `COc1cc(NC(=O)COc2cccc(OC)c2)cc(OC)c1`, the IC50 (Coagulation factor XII) is reported as > 50 µM (inactive).
